Read-outs that look alike come from different tables or passages of the source.
Legend:
[1] = system: Leukotriene D4-induced respiratory contraction; assay: Leukotriene D4-induced respiratory contraction test (Konzett and Rossler method); assay type: in vivo, guinea pig; settings: Cavia porcellus, po, LTD4 0.5 μg/kg i.v. 1 hour later, anesthetized Hartley guinea pigs, read-out: Inhibition ratio
Method: Leukotriene D4 -induced respiratory contraction test
Hartley strain male guinea pigs (body weight: 400 to 600 g, supplied by Nihon SLC Co.) were used and all of them were bred under conditions of constant temperature (23°±2° C.) and constant humidity ([…]). The animals which had been fasted for 24 hours before experiments were used.
LTD4 (Funakoshi) dissolved in a physiological saline solution (Otsuka Seiyaku) was used. The compounds to be tested suspended in a 0.5% carboxymethyl cellulose aqueous solution were used.
The operation was conducted according to the method of Konzett and Rossler (Konzett, H. and Rossler, R. Naunyn Schmiedebergs (1940) Arch. Exp. Pathol. Pharmacol., 195, 71.). Each guinea pig was anesthetized with urethane (1.5 g/kg, i.p.) and then fixed in the supine position. A trachea was incised and a .phi. type cannula was inserted into the trachea and connected to a respirator (Shinano Seisakusho, SN-480-7) for small animals. Artificial respiration with positive pressure was conducted with a pressure loaded to a lung of 10 cm H2 O, an air supplying rate of 5 ml/stroke and 60 strokes/min. The air supplying rate to the trachea was measured by differential pressure transducers (Nihon Koden, TU-241T and TP-602T) connected to the cannula in the trachea and recorded on a rectigraph (Nihon Koden, WT-645G Model).
LTD4 (0.5 μg/kg/0.5 ml) was administered intravenously (i.v.) from a cannula inserted into a common jugular vein to cause shrinkage of a trachea. Subsequently, a compound to be tested was administered orally (p.o.) after 10 minutes and LTD4 was administered intravenously (i.v.) again after 1 hour to cause shrinkage of the trachea. The results are shown by using a ratio of inhibiting a trachea-shrinking reaction before administering the compound to be tested.

[2] = biological target: T1, Leukotriene D4 (LTD4) receptor (Cavia porcellus, UniProt Q2NNR5); assay: Leukotriene D4 receptor binding test ([3H]ICI-198615 displacement, lung cell membrane fractions); settings: guinea pig lung membranes, [3H]ICI-198615 about 0.2 nM, pKi=-log Ki
T1 construct: lung cell membrane fractions of guinea pigs were used; from tissue; host or cells: lung membrane fractions of Hartley strain male guinea pigs
T1 sequence (Q2NNR5 1-340): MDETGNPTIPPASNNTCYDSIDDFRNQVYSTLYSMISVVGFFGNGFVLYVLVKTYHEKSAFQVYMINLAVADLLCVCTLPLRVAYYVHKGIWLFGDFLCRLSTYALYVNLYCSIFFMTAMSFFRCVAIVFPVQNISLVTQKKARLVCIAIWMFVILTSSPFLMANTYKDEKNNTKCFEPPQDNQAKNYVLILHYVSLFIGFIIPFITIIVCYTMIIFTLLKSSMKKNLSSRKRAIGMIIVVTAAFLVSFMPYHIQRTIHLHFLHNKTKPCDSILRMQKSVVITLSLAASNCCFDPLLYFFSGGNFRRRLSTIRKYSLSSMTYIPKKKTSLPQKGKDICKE
Method: Leukotriene D4 receptor binding test
<Preparation of receptor samples>
As receptor samples, lung cell membrane fractions of guinea pigs were used. The membrane fractions were prepared according to the method of Ahn et al. (Ahn, H. S. & Barnett, A. (1986) Eur. J. Pharmacol., 127, 153.). After Hartley strain male guinea pigs (body weight: 400 to 500 g, supplied by Nihon SLC Co.) were killed by exsanguination, lungs were extracted and perfused with a physiological saline solution (Otsuka Seiyaku) from lung arteries. The extracted lungs were cut into pieces immediately or after the lungs were stored by freezing them at -80 ° C. A 10-fold amount of a buffer solution (pH 7.4) of 10 mM PIPES, 10 mM MgCl2, 10 mM CaCl2 and 50 mM NaCl was added thereto and the mixtures were made suspensions by a homogenizer (manufactured by Yamato Co., LP-41C Model). After the suspensions were filtered with gauze, the filtrates were centrifuged by an ultracentrifuge (manufactured by Hitachi Co., 70P-72 Model) with 50,000 g for 10 minutes, whereby membrane fractions were deposited. The membrane fractions were washed twice and then suspended in the same buffer solution to obtain receptor samples. Measurement of a protein concentration was conducted by the Lowry method (Lowry, O, H. et al. (1951) J. Biol. Chem., 193,265.) by using bovine serum albumin as a standard protein. The samples prepared (protein amount: 10 to 25 mg/ml) were stored by freezing them at -80° C. and used for experiments.
<Leukotriene D4 receptor binding test>
The leukotriene D4 (LTD4) receptor binding test was conducted according to the method of O'Sullivan et al. (O'Sullivan, B. P. & Mong, S. (1989) Mol. Pharmacol., 35, 795.). The receptor samples were diluted with a buffer solution (pH 7.4) of 10 mM PIPES, 10 mM MgCl2, 10 mM CaCl2 and 50 mM NaCl and 0.42 mg/ml in terms of a protein amount was used. As a labeling compound, [^3 H]ICI-198615 (produced by Du Pont Co., 60 Ci/mmol) which specifically binds to the LTD4 receptor was used. [^3 H]ICI-198615 and a compound to be tested were dissolved in dimethylsulfoxide and a 1/50 amount (2% by volume) of the solution was added to the receptor-diluted solutions, respectively. 500 μl of each reaction mixture was incubated at 25° C. for 40 minutes and then filtered with a glass fiber filter (Whatman, GF/B type) by using a cell harvester (manufactured by Brandel Co., M-30R Model). The filters were washed with 10 ml of an ice-cooled 100 mM NaCl-50 mM phosphate buffer solution (pH 7.5) and subjected to ultrasonic treatment in 9 ml of a liquid scintillator (manufactured by Nacalai Tesque, Co., Clear sol I) for 2 minutes. Thereafter, radioactivity was measured by a liquid scintillation counter (manufactured by Packard Co., 2000 CA Model). In a test of determining a dissociation constant of ICI-198615, 0.1 to 2 nM [^3 H]ICI-198615 and 10 μM non-radioactive ICI-198615 were used. In a test of determining inhibition constants of the respective compounds to be tested, [^3 H]ICI-198615 having a concentration of about 0.2 nM and the compounds each having a concentration of 0.1 pM to 0.1 mM were used.
<Data analysis of receptor binding test>
The dissociation constant (Kd) of ICI-198615 and the binding inhibition constants (Ki) of the respective compounds to be tested were determined by the following numerical formulae (A), (B) and (C).
wherein B: a concentration of a label [3H] which is bound to a receptor, Bmax: a maximum receptor-binding concentration of a label [^3 H], F: a concentration of a label [^3 H] which is not bound to a receptor, [L]: a concentration of a label [^3 H], IC50 : a concentration of a compound which inhibits 50% of binding of a label [^3 H] to a receptor and pKi: a logarithm, of a reciprocal of Ki.

[3] = read-out: pKi value (converted)

Ki [2, 3]	Compound	inhibition in vivo at 1 mg/kg [1]	Ki ([2]; pKi value)
	O=C(O)CCSC1c2ccccc2COc2ccc(OCc3ccc4cc(F)c(Cl)cc4n3)cc21 (single isomer, unassigned; (+)) [Example 50, (+)-11-(2-Carboxyethylthio)-2-(7-chloro-6-fluoroquinolin-2-yl)methoxy-6,11-dihydrodibenz[b,e]oxepine]	100%	0.0794 nM
6.31 nM	c1ccc(Cc2nnn[nH]2)c(COc2ccc(OCc3ccc4ccccc4n3)cc2)c1 [Compound A, 5-[[2-[[4-(2-quinolinylmethoxy)phenoxy]methyl]phenyl]methyl]-1H-tetrazole, reference compound]	51%	
	O=C(O)CCSC1c2ccccc2COc2ccc(OCc3ccc4cc(F)c(Cl)cc4n3)cc21 (centres unmarked) [Example 1, 11-(2-Carboxyethylthio)-2-(7-chloro-6-fluoroquinolin-2-yl)methoxy-6,11-dihydrodibenz[b,e]oxepine]	100%	
	O=C(O)CCSC1c2ccccc2COc2ccc(OCc3ccc4ccc(Cl)cc4n3)cc21 (centres unmarked) [Example 2, 11-(2-Carboxyethylthio)-2-(7-chloroquinolin-2-yl)methoxy-6,11-dihydrodibenz[b,e]oxepine]	100%	0.794 nM
	O=C(O)CCSC1c2ccccc2COc2ccc(OCc3ccc4cc(F)ccc4n3)cc21 (centres unmarked) [Example 3, 11-(2-Carboxyethylthio)-2-(6-fluoroquinolin-2-yl)methoxy-6,11-dihydrodibenz[b,e]oxepine]	100%	3.16 nM
	O=C(O)CCSC1c2ccccc2COc2ccc(OCc3ccc4ccc(F)cc4n3)cc21 (centres unmarked) [Example 4, 11-(2-Carboxyethylthio)-2-(7-fluoroquinolin-2-yl)methoxy-6,11-dihydrodibenz[b,e]oxepine]	93%	1.58 nM
	COc1ccc2c(c1)COc1ccc(OCc3ccc4ccc(Cl)cc4n3)cc1C2SCCC(=O)O (centres unmarked) [Example 13, 11-(2-Carboxyethylthio)-2-(7-chloroquinolin-2-yl)methoxy-8-methoxy-6,11-dihydrodibenz[b,e]oxepine]	67%	0.794 nM
	O=C(O)CSC1c2ccccc2COc2ccc(OCc3ccc4ccc(Cl)cc4n3)cc21 (centres unmarked) [Example 21, 11-Carboxymethylthio-2-(7-chloroquinolin-2-yl)methoxy-6,11-dihydrodibenz[b,e]oxepine]	71%	0.794 nM
1.58 nM	O=C(O)COC1c2ccccc2COc2ccc(OCc3ccc4cc(Cl)ccc4n3)cc21 (centres unmarked) [Example 26, 11-Carboxymethoxy-2-(6-Chloroquinolin-2-yl)methoxy-6,11-dihydrodibenz[b,e]oxepine]	87%	
